Test results from patent publication US8288554B2, “Pyridin-3-yl derivatives as immunomodulating agents” (Actelion Pharmaceuticals Ltd., priority 2006, dated 2012).

Tests used:
[1] = target: recombinant human S1P1 receptor (Homo sapiens, UniProt P21453); assay: GTPγS assay to determine EC50 values; format: biochemical; conditions: agonist-induced 35S-GTPγS binding, membranes of CHO cells expressing recombinant human S1P1 receptor
Protocol: GTPγS binding assays are performed in 96 well microtiter plates (Nunc, 442587) in a final volume of 200 μl, using membrane preparations of CHO cells expressing recombinant human S1P1 receptor. Assay conditions are 20 mM Hepes (Fluka, 54461), 100 mM NaCl (Fluka, 71378), 5 mM MgCl2 (Fluka, 63064), 0.1% BSA (Calbiochem, 126609), 1 μM GDP (Sigma, G-7127), 2.5% DMSO (Fluka, 41644), […] ^35S-GTPγS (Amersham Biosciences, SJ1320). The pH is 7.4. Test compounds are dissolved and diluted in 100% DMSO and pre-incubated at room temperature for 30 min in 150 μl of the above assay buffer, in the absence of ^35S-GTPγS. After addition of 50 μl of ^35S-GTPγS, the assay is incubated for 1 h at rt. The assay is terminated by transfer of the reaction mixture to a Multiscreen plate (Millipore, MAHFC1H60) using a cell harvester from Packard Biosciences, and the plates are washed with ice-cold 10 mM Na2HPO4/NaH2PO4 (70%/30%), dried, sealed at the bottom and, after addition of 25 μl MicroScint20 (Packard Biosciences, order#6013621), sealed on the top. Membrane-bound ^35S-GTPγS is measured with a TopCount from Packard Biosciences.
EC50 is the concentration of agonist inducing 50% of the maximal specific ^35S-GTPγS binding. Specific binding is determined by subtracting non-specific binding from maximal binding. Maximal binding is the amount of cpm bound to the Multiscreen plate in the presence of 10 μM of S1P. Non-specific binding is the amount of binding in the absence of an agonist in the assay.

circulating lymphocytes = assay: Assessment of in vivo efficacy: circulating lymphocytes after oral administration; design: species or system rat; conditions: 6 h after oral administration of 10 mg/kg, normotensive male Wistar rats, compared to vehicle group
Protocol: The efficacy of the compounds of Formula (I) is assessed by measuring the circulating lymphocytes after oral administration of 3 to 30 mg/kg of a compound of Formula (I) to normotensive male Wistar rats. The animals are housed in climate-controlled conditions with a 12 h-light/dark cycle, and have free access to normal rat chow and drinking water. Blood is collected before and 3, 6 and 24 h after drug administration. Full blood is subjected to hematology using Advia Hematology system (Bayer Diagnostics, Zurich, Switzerland).
All data are presented as mean±SEM. Statistical analyses are performed by analysis of variance (ANOVA) using Statistica (StatSoft) and the Student-Newman-Keuls procedure for multiple comparisons. The null hypothesis is rejected when p<0.05.
Lymphocyte counts 6 h after oral administration have been measured for 6 exemplified compounds and are in the range of −77% to −61% with an average of −68%.

Sequence of recombinant human S1P1 receptor (P21453 whole entry): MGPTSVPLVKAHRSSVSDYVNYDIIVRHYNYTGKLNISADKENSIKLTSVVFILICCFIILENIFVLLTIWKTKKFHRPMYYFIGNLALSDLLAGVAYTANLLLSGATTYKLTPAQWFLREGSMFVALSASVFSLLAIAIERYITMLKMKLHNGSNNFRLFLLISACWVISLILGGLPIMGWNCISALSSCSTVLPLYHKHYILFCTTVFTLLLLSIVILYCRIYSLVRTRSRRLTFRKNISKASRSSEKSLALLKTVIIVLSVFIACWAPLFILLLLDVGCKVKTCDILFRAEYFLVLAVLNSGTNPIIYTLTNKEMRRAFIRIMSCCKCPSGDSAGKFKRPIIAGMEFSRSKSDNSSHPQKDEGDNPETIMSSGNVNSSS

| Structure (SMILES) | EC50 [1] | Lymphocyte counts (circulating lymphocytes) |
| --- | --- | --- |
| Cc1cc(-c2noc(-c3cnc(OC(C)C)c(Cl)c3)n2)cc(C)c1OCC(O)CNC(=O)CO (racemic) [Example 3, N—((RS)-3-{4-[5-(5-chloro-6-isopropoxy-pyridin-3-yl)-[1,2,4]oxadiazol-3-yl]-2,6-dimethyl-phenoxy}-2-hydroxy-propyl)-2-hydroxy-acetamide] |  | −71% |
| Cc1cc(-c2noc(-c3cnc(OC(C)C)c(Cl)c3)n2)cc(C)c1OCC(O)CO (racemic) [Example 1, (RS)-3-{4-[5-(5-chloro-6-isopropoxy-pyridin-3-yl)-[1,2,4]oxadiazol-3-yl]-2,6-dimethyl-phenoxy}-propane-1,2-diol] | 0.6 nM |  |
| CCc1cc(-c2noc(-c3cnc(CC(C)C)c(C)c3)n2)cc(C)c1OCC(O)CNC(=O)CO (racemic) [Example 8, N—((RS)-3-{2-Ethyl-4-[5-(6-isobutyl-5-methyl-pyridin-3-yl)-[1,2,4]oxadiazol-3-yl]-6-methyl-phenoxy}-2-hydroxy-propyl)-2-hydroxy-acetamide] |  | −61% |
| Cc1cc(-c2noc(-c3cnc(CC(C)C)c(CC(C)C)c3)n2)cc(C)c1OCC(O)CO (racemic) [Example 12, (RS)-3-{4-[5-(5,6-Diisobutyl-pyridin-3-yl)-[1,2,4]oxadiazol-3-yl]-2,6-dimethyl-phenoxy}-propane-1,2-diol] |  | −61% |

Continued, in another order:

| EC50 [1] | Structure (SMILES) | Lymphocyte counts (circulating lymphocytes) |
| --- | --- | --- |
| 3.5 nM | CCc1cc(-c2noc(-c3cnc(OC(C)C)c(C)c3)n2)cc(C)c1CCC(=O)NCCO [Example 89, 3-{2-Ethyl-4-[5-(6-isopropoxy-5-methyl-pyridin-3-yl)-[1,2,4]oxadiazol-3-yl]-6-methyl-phenyl}-N-(2-hydroxy-ethyl)-propionamide] |  |
| 0.6 nM | Cc1cc(-c2nc(-c3cc(C)c(OCC(O)CNC(=O)CO)c(Cl)c3)no2)cnc1CC(C)C (stereo not shown) [Example 42] |  |
| 2.7 nM | Cc1cc(-c2nc(-c3cc(C)c(OCC(O)CNC(=O)CO)c(C)c3)no2)cnc1CC(C)C (racemic) [Example 5, 2-Hydroxy-N—((RS)-2-hydroxy-3-{4-[5-(6-isobutyl-5-methyl-pyridin-3-yl)-[1,2,4]oxadiazol-3-yl]-2,6-dimethyl-phenoxy}-propyl)-acetamide] |  |
| 5.1 nM | CCc1cc(-c2nc(-c3cnc(OC(C)C)c(C)c3)no2)cc(C)c1OC[C@@H](O)CO [Example 92] |  |
| 4 nM | COc1cc(-c2noc(-c3cnc(CC(C)C)c(C)c3)n2)cc(Cl)c1OCC(O)CNC(=O)CO (stereo not shown) [Example 43] |  |
| 0.1 nM | CCc1cc(-c2noc(-c3cnc(OC(C)C)c(C)c3)n2)cc(C)c1OC[C@@H](O)CNC(=O)CO [Example 88] |  |
